{"source": "patent US20240199546A1", "about": "“INHIBITORS OF SOLUTE CARRIER FAMILY 6A MEMBER 19 (SLC6A19) AND METHODS OF USE THEREOF” (Maze Therapeutics, Inc., priority 2022, published 2024)", "data": [{"biological_target": "T1, human SLC6A19 and TMEM27 (Homo sapiens, UniProt Q695T7)", "T1 construct": "expressed in transfected cells", "T1 sequence (Q695T7 1-634)": "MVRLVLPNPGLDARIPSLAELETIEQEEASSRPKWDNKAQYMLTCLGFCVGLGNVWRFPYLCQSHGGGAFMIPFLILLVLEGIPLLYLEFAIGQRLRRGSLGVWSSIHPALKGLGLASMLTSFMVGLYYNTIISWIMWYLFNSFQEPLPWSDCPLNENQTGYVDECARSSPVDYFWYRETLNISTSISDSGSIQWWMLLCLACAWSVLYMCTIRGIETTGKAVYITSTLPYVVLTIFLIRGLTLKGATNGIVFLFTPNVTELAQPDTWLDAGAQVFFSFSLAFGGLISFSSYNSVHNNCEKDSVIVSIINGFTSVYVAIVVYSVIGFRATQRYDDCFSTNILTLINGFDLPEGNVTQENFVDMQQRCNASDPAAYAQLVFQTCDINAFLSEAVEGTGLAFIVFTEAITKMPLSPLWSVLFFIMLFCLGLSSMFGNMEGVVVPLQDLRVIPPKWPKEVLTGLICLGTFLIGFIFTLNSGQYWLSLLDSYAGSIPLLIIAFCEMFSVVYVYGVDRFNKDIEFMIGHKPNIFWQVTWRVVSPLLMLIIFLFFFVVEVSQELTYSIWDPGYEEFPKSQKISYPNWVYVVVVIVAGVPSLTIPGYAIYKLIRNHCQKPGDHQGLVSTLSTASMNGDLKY", "T1 sequence (Q9HBJ8 15-222 partner)": "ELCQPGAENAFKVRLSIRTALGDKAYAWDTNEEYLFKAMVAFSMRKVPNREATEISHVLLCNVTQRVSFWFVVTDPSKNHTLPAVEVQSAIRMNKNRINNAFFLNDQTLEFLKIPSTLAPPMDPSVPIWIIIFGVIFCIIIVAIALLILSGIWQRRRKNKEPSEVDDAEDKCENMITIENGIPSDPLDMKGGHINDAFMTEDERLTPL", "experiment": "Radiolabelled (3H) leucine uptake in CHO cells with doxycycline-inducible expression of human SLC6A19 and TMEM27 (Example B-1)", "format": "cell-based", "conditions": "CHO cells with doxycycline-inducible expression of human SLC6A19 and TMEM27, read-out: SLC6A19_Radioligand Uptake Assay IC50", "how_it_was_run": "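CHO cells were induced with doxycycline for 18 h at 37 °C, washed in HBSS, then exposed to compounds for 1 h: 8-point, 3-fold dilutions in duplicate, 0.5% DMSO final. Uptake measured by scintillation counting after 2 h shaking. Activity normalized with positive control as 0% and DMSO as 100%.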", "units": {"IC50": "µM"}, "values": [{"smiles": "CSc1cc2cc(CNC(=O)C3(C)CC3)[nH]c2cc1OCc1cscn1", "note": "[Compound 348, 1-methyl-N-((5-(methylthio)-6-(thiazol-4-ylmethoxy)-1H-indol-2-yl)methyl)cyclopropane-1-carboxamide]", "IC50": 0.516}, {"smiles": "Cc1cc(COc2cc3[nH]c(CNC(=O)[C@@H](C)CO)cc3cc2Cl)on1", "note": "[Compound 535, (S)-N-((5-chloro-6-((3-methylisoxazol-5-yl)methoxy)-1H-indol-2-yl)methyl)-3-hydroxy-2-methylpropanamide]", "IC50": 1.65}, {"smiles": "CC1(C(=O)NCc2cc3cc(CCC#N)c(OCc4cscn4)cc3[nH]2)CC1", "note": "[Compound 641, N-((5-(2-cyanoethyl)-6-(thiazol-4-ylmethoxy)-1H-indol-2-yl)methyl)-1-methylcyclopropane-1-carboxamide]", "IC50": 2.1}, {"smiles": "CC1(C(=O)NCc2cc3cc(Cl)c(CNc4cccnc4)cc3[nH]2)CC1", "note": "[Compound 610, N-((5-chloro-6-((pyridin-3-ylamino)methyl)-1H-indol-2-yl)methyl)-1-methylcyclopropane-1-carboxamide]", "IC50": 0.991}, {"smiles": "CCOC(=O)NCc1cc2cc(Cl)c(OCc3cscn3)cc2[nH]1", "note": "[Compound 620, ethyl ((5-chloro-6-(thiazol-4-ylmethoxy)-1H-indol-2-yl)methyl)carbamate]", "IC50": 0.182}, {"smiles": "[2H]C([2H])([2H])C(=O)NCc1cc2cc(Cl)c(OCc3cc(C)no3)cc2[nH]1", "note": "[Compound 562, N-((5-chloro-6-((3-methylisoxazol-5-yl)methoxy)-1H-indol-2-yl)methyl)acetamide-2,2,2-d3]", "IC50": 0.0833}, {"smiles": "Cc1cc(COc2cc3[nH]c(CNC(=O)C(O)C4CC4)cc3cc2Cl)on1", "note": "(centres unmarked) [Compound 238, N-((5-chloro-6-((3-methylisoxazol-5-yl)methoxy)-1H-indol-2-yl)methyl)-2-cyclopropyl-2-hydroxyacetamide]", "IC50": 1.45}, {"smiles": "CNC(=O)NCc1cc2cc(Cl)c(OCc3cc(C)on3)cc2[nH]1", "note": "[Compound 213, 1-((5-chloro-6-((5-methylisoxazol-3-yl)methoxy)-1H-indol-2-yl)methyl)-3-methylurea]", "IC50": 0.192}, {"smiles": "CC1(C(=O)NCc2cc3cc(OC(F)F)c(OCc4cscn4)cc3[nH]2)CC1", "note": "[Compound 604, N-((5-(difluoromethoxy)-6-(thiazol-4-ylmethoxy)-1H-indol-2-yl)methyl)-1-methylcyclopropane-1-carboxamide]", "IC50": 0.391}, {"smiles": "Cc1cc(COc2cc3[nH]c(CNC(=O)[C@@H]4C[C@@H](F)CN4C)cc3cc2Cl)on1", "note": "[Compound 667, (2S,4R)—N-((5-chloro-6-((3-methylisoxazol-5-yl)methoxy)-1H-indol-2-yl)methyl)-4-fluoro-1-methylpyrrolidine-2-carboxamide]", "IC50": 0.524}, {"smiles": "[2H]C([2H])([2H])c1cc(COc2cc3[nH]c(CNC(=O)C4(C)CC4)cc3cc2F)no1", "note": "[Compound 664, N-((5-fluoro-6-((5-(methyl-d3)isoxazol-3-yl)methoxy)-1H-indol-2-yl)methyl)-1-methylcyclopropane-1-carboxamide]", "IC50": 0.187}, {"smiles": "N#CCC(=O)NCc1cc2cc(Cl)c(OCc3cscn3)cc2[nH]1", "note": "[Compound 437, N-((5-chloro-6-(thiazol-4-ylmethoxy)-1H-indol-2-yl)methyl)-2-cyanoacetamide]", "IC50": 0.382}, {"smiles": "COCC1(C(=O)NCc2cc3cc(Cl)c(OCc4cscn4)cc3[nH]2)CC1", "note": "[Compound 279, N-((5-chloro-6-(thiazol-4-ylmethoxy)-1H-indol-2-yl)methyl)-1-(methoxymethyl)cyclopropane-1-carboxamide]", "IC50": 0.383}, {"smiles": "Cc1cc(COc2cc3[nH]c(CNC(=O)C4CCO4)cc3cc2F)on1", "note": "(centres unmarked) [Compound 262, N-((5-fluoro-6-((3-methylisoxazol-5-yl)methoxy)-1H-indol-2-yl)methyl)oxetane-2-carboxamide]", "IC50": 0.472}, {"smiles": "CC(=O)NCc1cc2cc(F)c(OCc3ccon3)cc2[nH]1", "note": "[Compound 207, N-((5-fluoro-6-(isoxazol-3-ylmethoxy)-1H-indol-2-yl)methyl)acetamide]", "IC50": 0.926}, {"smiles": "Cc1cc(COc2cc3[nH]c(CNC(=O)C4(CO)CCCO4)cc3cc2Cl)on1", "note": "(centres unmarked) [Compound 295, N-((5-chloro-6-((3-methylisoxazol-5-yl)methoxy)-1H-indol-2-yl)methyl)-2-(hydroxymethyl)tetrahydrofuran-2-carboxamide]", "IC50": 1.61}, {"smiles": "O=C(NCc1cc2cc(OC(F)(F)F)c(CCc3ccon3)cc2[nH]1)N1CCC1", "note": "[Compound 597, N-((6-(2-(isoxazol-3-yl)ethyl)-5-(trifluoromethoxy)-1H-indol-2-yl)methyl)azetidine-1-carboxamide]", "IC50": 0.307}, {"smiles": "CC1(C(=O)NCc2cc3cc(Cl)c(OCCC4CCCO4)cc3[nH]2)CC1", "note": "(racemic) [Compound 397, (S)-N-((5-chloro-6-(2-(tetrahydrofuran-2-yl)ethoxy)-1H-indol-2-yl)methyl)-1-methylcyclopropane-1-carboxamide and (R)-N-((5-chloro-6-(2-(tetrahydrofuran-2-yl)ethoxy)-1H-indol-2-yl)methyl)-1-methylcyclopropane-1-carboxamide]", "IC50": 0.492}, {"smiles": "O=C(NCc1cc2cc(Cl)c(OCc3cscn3)cc2[nH]1)C12CCC(CC1)C2", "note": "[Compound 556, N-((5-chloro-6-(thiazol-4-ylmethoxy)-1H-indol-2-yl)methyl)bicyclo[2.2.1]heptane-1-carboxamide]", "IC50": 1.2}, {"smiles": "Cc1cc(COc2cc3[nH]c(CNC(=O)C4(C)CC4)cc3cc2F)no1", "note": "[Compound 329, N-((5-fluoro-6-((5-methylisoxazol-3-yl)methoxy)-1H-indol-2-yl)methyl)-1-methylcyclopropane-1-carboxamide]", "IC50": 0.167}, {"smiles": "C[C@@H]1CCN1C(=O)NCc1cc2cc(Cl)c(OCc3ccon3)cc2[nH]1", "note": "[Compound 363, (R)-N-((5-chloro-6-(isoxazol-3-ylmethoxy)-1H-indol-2-yl)methyl)-2-methylazetidine-1-carboxamide]", "IC50": 0.332}, {"smiles": "COc1cc2cc(CNC(=O)C3(C)CC3)[nH]c2cc1CCn1ccnn1", "note": "[Compound 588, N-((6-(2-(1H-1,2,3-triazol-1-yl)ethyl)-5-methoxy-1H-indol-2-yl)methyl)-1-methylcyclopropane-1-carboxamide]", "IC50": 3.67}, {"smiles": "Cc1cc(COc2cc3[nH]c(CNC(=O)C4OCCC4(F)F)cc3cc2Cl)on1", "note": "(centres unmarked) [Compound 306, N-((5-chloro-6-((3-methylisoxazol-5-yl)methoxy)-1H-indol-2-yl)methyl)-3,3-difluorotetrahydrofuran-2-carboxamide]", "IC50": 0.633}, {"smiles": "COC1CN(C(=O)NCc2cc3cc(Cl)c(OCc4cscn4)cc3[nH]2)C1", "note": "[Compound 364, N-((5-chloro-6-(thiazol-4-ylmethoxy)-1H-indol-2-yl)methyl)-3-methoxyazetidine-1-carboxamide]", "IC50": 0.69}, {"smiles": "O=C(NCc1cc2cc(Cl)c(OCc3cscn3)cc2[nH]1)C1CC12CC2", "note": "(centres unmarked) [Compound 553, N-((5-chloro-6-(thiazol-4-ylmethoxy)-1H-indol-2-yl)methyl)spiro[2.2]pentane-1-carboxamide]", "IC50": 0.342}, {"smiles": "CSc1cc2cc(CNC(=O)C3(C)CC3)[nH]c2cc1OCc1ccon1", "note": "[Compound 391, N-((6-(isoxazol-3-ylmethoxy)-5-(methylthio)-1H-indol-2-yl)methyl)-1-methylcyclopropane-1-carboxamide]", "IC50": 0.225}, {"smiles": "O=C(NCc1cc2cc(OC(F)(F)F)c(CCc3cscn3)cc2[nH]1)N1CCC1", "note": "[Compound 596, N-((6-(2-(thiazol-4-yl)ethyl)-5-(trifluoromethoxy)-1H-indol-2-yl)methyl)azetidine-1-carboxamide]", "IC50": 0.336}, {"smiles": "CO[C@@H](C)C(=O)NCc1cc2cc(Cl)c(OCc3cc(C)no3)cc2[nH]1", "note": "[Compound 313, (S)-N-((5-chloro-6-((3-methylisoxazol-5-yl)methoxy)-1H-indol-2-yl)methyl)-2-methoxypropanamide]", "IC50": 0.125}, {"smiles": "Cc1cc(COc2cc3[nH]c(CNC(=O)CC(F)F)cc3cc2Cl)on1", "note": "[Compound 519, N-((5-chloro-6-((3-methylisoxazol-5-yl)methoxy)-1H-indol-2-yl)methyl)-3,3-difluoropropanamide]", "IC50": 0.118}, {"smiles": "O=C(NCc1cc2cc(Cl)c(OCc3ccon3)cc2[nH]1)C1CC(F)(F)C1", "note": "[Compound 491, N-((5-chloro-6-(isoxazol-3-ylmethoxy)-1H-indol-2-yl)methyl)-3,3-difluorocyclobutane-1-carboxamide]", "IC50": 0.814}, {"smiles": "O=C(NCc1cc2cc(F)c(OCc3ccon3)cc2[nH]1)N1CCCCC1", "note": "[Compound 88, N-((5-fluoro-6-(isoxazol-3-ylmethoxy)-1H-indol-2-yl)methyl)piperidine-1-carboxamide]", "IC50": 0.477}, {"smiles": "C[C@H](O)C(=O)NCc1cc2cc(Cl)c(OCc3cscn3)cc2[nH]1", "note": "[Compound 285, (S)-N-((5-chloro-6-(thiazol-4-ylmethoxy)-1H-indol-2-yl)methyl)-2-hydroxypropanamide]", "IC50": 0.322}]}]}
